Patent US8735584B2 (Merck Patent GmbH, priority 2008, dated 2014)

Tests used:
Format in all cases: biochemical
[1] = target: T1, AKT2 (Homo sapiens, UniProt P31751); assay: Desktop Profiler kinase panel, AKT2; details: 10 micromolar concentration of the compound; read-out: Percent Inhibition AKT2
T1 construct: purchased Caliper Life Sciences
Experimental: (§1) The Aurora assays described here are performed on two Caliper Life Sciences systems: the LC3000 and the Desktop Profiler. These provide data on enzyme activity via measurement of the relative amounts of phosphorylated or unphosphorylated fluorescently labelled substrate peptide at the end of an enzymatic reaction. These different states of peptide are resolved by applying a potential difference across the sample. The presence of the charged phosphate group on the product (as opposed to the substrate) causes a different peptide mobility between the two peptides. This is visualized by excitation of the fluorescent label on the substrate and product peptides and represented as peaks within the analysis software.
(§2) The Desktop Profiler utilizes the same principle as the LC3000 for calculating percentage conversion of a substrate to product. Caliper Life Sciences provides proprietary flash frozen pre-made 384 well plates containing selected kinases. Each column in the 384 well plate contains a particular selected kinase. A second plate, the ‘substrate plate’ contains a mix of fluorescently labeled peptide substrate and ATP. These are arranged in columns so that transfer for substrate plate to enzyme plate provides the correct enzyme with the correct substrate/ATP concentration. Compounds are added to a thawed enzyme plate in the desired format, in single concentrations. Reactions are initiated by transfer of the substrate/ATP mix from the substrate plate. The enzyme plate is incubated for 90 mins at 25 C. The reaction is stopped by addition of 70 ul of Stop Buffer (100 mM HEPES pH 7.5, 0.015% Brij-35, 10 mM EDTA (Sigma, E7889)).
(§3) Reading of the plate in the Profiler is identical to the LC3000, and the ratio between substrate and product peaks provides the activity of the enzyme in that well. This is best represented by a plate heat map which colors each well by percent inhibition as compared to positive and negative controls (no inhibitors and no ATP respectively).
(§4) In the following Tables 3a-4-b, which show the results of the desktop profiler measurements, “+” means 50-70% inhibition, “++” means 70-90% inhibition, and “+++” means >90% inhibition. The enzymes tested for profiling were ABL, AKT1, AKT2, AurA, CHK1, CHK2, CK1d, Erk1, Erk2, FYN, GSK3b, INSR, LCK, LYN, MAPKAPK2, MET, MSK1, p38a, PKA, PKCz, PKD2, PRAK, RSK1 and SRC.

[2] = target: T2, MSK1 (Homo sapiens, UniProt O75582); assay: Desktop Profiler kinase panel, MSK1; details: 10 micromolar concentration of the compound; read-out: Percent Inhibition MSK1
T2 construct: purchased Caliper Life Sciences
T2 sequence (O75582 whole entry, species assumed): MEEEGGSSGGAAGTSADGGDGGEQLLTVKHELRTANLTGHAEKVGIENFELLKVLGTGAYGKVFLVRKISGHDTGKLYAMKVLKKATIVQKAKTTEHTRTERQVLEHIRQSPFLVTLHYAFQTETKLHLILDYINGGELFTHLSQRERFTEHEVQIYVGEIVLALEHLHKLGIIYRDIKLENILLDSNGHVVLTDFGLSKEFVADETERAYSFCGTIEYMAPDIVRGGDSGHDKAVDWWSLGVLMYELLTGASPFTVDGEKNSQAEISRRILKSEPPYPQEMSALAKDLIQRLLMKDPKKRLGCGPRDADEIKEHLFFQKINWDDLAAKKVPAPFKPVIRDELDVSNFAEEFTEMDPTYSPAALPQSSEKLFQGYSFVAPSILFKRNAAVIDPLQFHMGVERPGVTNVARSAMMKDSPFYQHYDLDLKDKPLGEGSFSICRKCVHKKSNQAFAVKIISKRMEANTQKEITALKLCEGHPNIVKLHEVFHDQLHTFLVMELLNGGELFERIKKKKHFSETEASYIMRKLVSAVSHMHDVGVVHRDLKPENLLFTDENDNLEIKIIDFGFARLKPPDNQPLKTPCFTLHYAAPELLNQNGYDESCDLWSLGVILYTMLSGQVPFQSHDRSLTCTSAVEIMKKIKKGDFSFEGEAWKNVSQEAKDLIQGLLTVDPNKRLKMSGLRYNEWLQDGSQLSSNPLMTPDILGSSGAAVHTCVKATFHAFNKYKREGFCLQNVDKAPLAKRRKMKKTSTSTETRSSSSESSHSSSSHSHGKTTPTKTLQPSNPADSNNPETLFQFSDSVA
Experimental: as §1, §2
as §3, with “respectively). […]” for “respectively).”

[3] = target: T3, CK1d (Homo sapiens, UniProt P48730); assay: Desktop Profiler kinase panel, CK1d; details: 10 micromolar concentration of the compound; read-out: Percent Inhibition CK1d
T3 construct: purchased Caliper Life Sciences
T3 sequence (P48730 whole entry): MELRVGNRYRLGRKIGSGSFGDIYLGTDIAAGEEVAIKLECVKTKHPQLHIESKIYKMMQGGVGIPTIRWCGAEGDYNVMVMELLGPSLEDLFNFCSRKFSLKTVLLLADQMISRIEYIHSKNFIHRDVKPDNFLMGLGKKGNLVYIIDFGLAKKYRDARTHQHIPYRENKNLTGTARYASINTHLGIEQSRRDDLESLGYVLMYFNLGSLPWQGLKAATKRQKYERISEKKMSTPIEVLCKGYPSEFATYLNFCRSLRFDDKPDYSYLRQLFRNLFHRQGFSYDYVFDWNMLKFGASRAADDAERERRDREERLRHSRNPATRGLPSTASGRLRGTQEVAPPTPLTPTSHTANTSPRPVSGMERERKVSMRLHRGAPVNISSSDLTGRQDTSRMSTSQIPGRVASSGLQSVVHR
Experimental: as §1, §2, §3, §4

[4] = target: T4, SRC (Homo sapiens, UniProt P12931); assay: Desktop Profiler kinase panel, SRC; details: 10 micromolar concentration of the compound; read-out: Percent Inhibition SRC
T4 construct: purchased Caliper Life Sciences
T4 sequence (P12931 whole entry, species assumed): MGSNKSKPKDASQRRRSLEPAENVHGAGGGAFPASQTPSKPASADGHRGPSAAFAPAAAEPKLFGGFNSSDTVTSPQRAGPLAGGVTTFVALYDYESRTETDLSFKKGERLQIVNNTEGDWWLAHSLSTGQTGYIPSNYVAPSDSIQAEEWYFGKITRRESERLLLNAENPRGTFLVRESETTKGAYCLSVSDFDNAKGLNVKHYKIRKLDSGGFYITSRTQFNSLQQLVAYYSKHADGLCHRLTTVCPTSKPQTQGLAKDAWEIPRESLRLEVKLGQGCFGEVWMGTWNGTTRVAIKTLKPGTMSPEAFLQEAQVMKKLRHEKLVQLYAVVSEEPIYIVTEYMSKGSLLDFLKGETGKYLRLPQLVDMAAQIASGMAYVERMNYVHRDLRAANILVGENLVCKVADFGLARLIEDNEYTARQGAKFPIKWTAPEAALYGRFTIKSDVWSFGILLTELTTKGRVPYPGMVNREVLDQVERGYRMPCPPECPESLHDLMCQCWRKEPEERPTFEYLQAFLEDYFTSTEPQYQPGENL
Experimental: as §1, §2, §3, §4

[5] = target: T5, LYN (Homo sapiens, UniProt P07948); assay: Desktop Profiler kinase panel, LYN; details: 10 micromolar concentration of the compound; read-out: Percent Inhibition LYN
T5 construct: purchased Caliper Life Sciences
T5 sequence (P07948 whole entry, species assumed): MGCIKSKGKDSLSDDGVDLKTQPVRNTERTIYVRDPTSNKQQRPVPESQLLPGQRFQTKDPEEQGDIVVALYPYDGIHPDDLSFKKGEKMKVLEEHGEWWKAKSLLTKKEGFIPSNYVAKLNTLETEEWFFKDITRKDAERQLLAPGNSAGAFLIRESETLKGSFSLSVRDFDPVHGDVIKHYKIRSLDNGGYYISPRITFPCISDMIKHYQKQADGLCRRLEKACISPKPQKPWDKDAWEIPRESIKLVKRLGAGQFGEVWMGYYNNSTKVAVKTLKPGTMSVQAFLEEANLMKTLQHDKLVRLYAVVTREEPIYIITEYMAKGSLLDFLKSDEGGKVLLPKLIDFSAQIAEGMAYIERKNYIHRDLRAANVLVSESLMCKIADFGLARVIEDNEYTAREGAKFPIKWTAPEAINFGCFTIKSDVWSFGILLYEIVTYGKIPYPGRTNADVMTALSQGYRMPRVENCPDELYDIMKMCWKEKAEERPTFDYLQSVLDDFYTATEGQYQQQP
Experimental: as §1, §2, §3, §4

[6] = target: T6, GSK3b (Homo sapiens, UniProt P49841); assay: Desktop Profiler kinase panel, GSK3b; details: 10 micromolar concentration of the compound; read-out: Percent Inhibition GSK3b
T6 construct: purchased Caliper Life Sciences
Experimental: as §1, §2, §3, §4

[7] = target: T7, PKA (Homo sapiens, UniProt P17612); assay: Desktop Profiler kinase panel, PKA; details: 10 micromolar concentration of the compound; read-out: Percent Inhibition PKA
T7 construct: purchased Caliper Life Sciences
Experimental: as §1, §2, §3, §4

[8] = target: T8, ABL (Homo sapiens, UniProt P00519); assay: Desktop Profiler kinase panel, ABL; details: 10 micromolar concentration of the compound; read-out: Percent Inhibition ABL
T8 construct: purchased Caliper Life Sciences
T8 sequence (P00519 whole entry, species assumed): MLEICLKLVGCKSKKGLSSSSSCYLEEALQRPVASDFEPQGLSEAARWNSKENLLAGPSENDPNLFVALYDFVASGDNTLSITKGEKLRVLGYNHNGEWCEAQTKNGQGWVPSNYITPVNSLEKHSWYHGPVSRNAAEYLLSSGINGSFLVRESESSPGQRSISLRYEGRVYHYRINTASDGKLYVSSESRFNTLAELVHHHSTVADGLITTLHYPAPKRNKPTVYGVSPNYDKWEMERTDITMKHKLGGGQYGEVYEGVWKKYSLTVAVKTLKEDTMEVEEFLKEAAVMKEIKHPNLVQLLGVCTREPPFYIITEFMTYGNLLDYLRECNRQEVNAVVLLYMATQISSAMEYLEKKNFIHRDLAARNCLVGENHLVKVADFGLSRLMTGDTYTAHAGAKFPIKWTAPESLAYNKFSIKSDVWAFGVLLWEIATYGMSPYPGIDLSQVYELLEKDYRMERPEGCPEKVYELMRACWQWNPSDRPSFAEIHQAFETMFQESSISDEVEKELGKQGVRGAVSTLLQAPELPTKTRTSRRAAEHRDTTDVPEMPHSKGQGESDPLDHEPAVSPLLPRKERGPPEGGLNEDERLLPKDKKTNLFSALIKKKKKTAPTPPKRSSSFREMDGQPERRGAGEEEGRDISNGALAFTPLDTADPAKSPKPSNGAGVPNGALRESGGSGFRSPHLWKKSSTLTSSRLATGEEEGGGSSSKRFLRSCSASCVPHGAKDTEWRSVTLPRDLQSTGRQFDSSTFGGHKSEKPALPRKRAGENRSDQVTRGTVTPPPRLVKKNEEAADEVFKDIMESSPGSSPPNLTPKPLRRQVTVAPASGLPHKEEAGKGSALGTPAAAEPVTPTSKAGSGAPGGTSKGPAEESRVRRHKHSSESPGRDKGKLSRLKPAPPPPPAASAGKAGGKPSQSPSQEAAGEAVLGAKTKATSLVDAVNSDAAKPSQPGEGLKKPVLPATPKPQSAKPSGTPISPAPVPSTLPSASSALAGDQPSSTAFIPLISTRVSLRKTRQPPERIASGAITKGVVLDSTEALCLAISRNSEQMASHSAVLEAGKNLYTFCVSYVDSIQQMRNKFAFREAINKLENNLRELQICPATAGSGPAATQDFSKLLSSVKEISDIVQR
Experimental: as §1, §2, §3, §4

[9] = target: T9, CHK2 (Homo sapiens, UniProt O96017); assay: Desktop Profiler kinase panel, CHK2; details: 10 micromolar concentration of the compound; read-out: Percent Inhibition CHK2
T9 construct: purchased Caliper Life Sciences
T9 sequence (O96017 whole entry, species assumed): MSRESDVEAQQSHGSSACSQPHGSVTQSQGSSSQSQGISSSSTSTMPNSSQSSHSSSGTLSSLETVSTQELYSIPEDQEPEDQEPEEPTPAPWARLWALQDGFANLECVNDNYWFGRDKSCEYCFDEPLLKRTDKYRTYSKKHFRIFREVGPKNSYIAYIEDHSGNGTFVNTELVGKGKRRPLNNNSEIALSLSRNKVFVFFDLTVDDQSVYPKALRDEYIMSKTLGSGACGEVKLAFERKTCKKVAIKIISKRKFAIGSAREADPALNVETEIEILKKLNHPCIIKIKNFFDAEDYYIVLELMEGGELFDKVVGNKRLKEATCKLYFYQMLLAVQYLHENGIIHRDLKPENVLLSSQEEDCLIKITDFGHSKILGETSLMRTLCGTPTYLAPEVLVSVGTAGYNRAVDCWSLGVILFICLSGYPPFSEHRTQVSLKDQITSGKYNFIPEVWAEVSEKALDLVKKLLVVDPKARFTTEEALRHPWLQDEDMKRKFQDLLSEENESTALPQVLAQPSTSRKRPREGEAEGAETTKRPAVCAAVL
Experimental: as §1, §2, §3, §4

[10] = target: T10, RSK1 (Homo sapiens, UniProt Q15418); assay: Desktop Profiler kinase panel, RSK1; details: 10 micromolar concentration of the compound; read-out: Percent Inhibition RSK1
T10 construct: purchased Caliper Life Sciences
Experimental: as §1, §2, §3, §4

[11] = target: T11, FYN (Homo sapiens, UniProt P06241); assay: Desktop Profiler kinase panel, FYN; details: 10 micromolar concentration of the compound; read-out: Percent Inhibition FYN
T11 construct: purchased Caliper Life Sciences
T11 sequence (P06241 whole entry, species assumed): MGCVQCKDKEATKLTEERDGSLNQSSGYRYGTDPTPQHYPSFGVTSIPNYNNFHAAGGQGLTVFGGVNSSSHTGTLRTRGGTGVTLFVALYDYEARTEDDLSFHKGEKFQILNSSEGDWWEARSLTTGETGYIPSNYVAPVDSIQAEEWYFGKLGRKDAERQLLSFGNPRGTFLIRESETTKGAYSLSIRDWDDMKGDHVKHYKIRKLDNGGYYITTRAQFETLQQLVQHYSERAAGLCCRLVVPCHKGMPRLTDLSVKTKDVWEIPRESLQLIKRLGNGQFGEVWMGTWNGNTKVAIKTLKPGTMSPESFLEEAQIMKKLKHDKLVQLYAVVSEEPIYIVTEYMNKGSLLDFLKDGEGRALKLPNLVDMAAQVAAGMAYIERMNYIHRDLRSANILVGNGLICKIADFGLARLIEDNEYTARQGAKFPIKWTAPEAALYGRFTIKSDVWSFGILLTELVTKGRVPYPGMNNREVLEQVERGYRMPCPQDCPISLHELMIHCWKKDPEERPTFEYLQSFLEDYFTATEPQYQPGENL
Experimental: as §1, §2, §3, §4

[12] = target: T12, PRAK (Homo sapiens, UniProt Q8IW41); assay: Desktop Profiler kinase panel, PRAK; details: 10 micromolar concentration of the compound; read-out: Percent Inhibition PRAK
T12 construct: purchased Caliper Life Sciences
T12 sequence (Q8IW41 1-473): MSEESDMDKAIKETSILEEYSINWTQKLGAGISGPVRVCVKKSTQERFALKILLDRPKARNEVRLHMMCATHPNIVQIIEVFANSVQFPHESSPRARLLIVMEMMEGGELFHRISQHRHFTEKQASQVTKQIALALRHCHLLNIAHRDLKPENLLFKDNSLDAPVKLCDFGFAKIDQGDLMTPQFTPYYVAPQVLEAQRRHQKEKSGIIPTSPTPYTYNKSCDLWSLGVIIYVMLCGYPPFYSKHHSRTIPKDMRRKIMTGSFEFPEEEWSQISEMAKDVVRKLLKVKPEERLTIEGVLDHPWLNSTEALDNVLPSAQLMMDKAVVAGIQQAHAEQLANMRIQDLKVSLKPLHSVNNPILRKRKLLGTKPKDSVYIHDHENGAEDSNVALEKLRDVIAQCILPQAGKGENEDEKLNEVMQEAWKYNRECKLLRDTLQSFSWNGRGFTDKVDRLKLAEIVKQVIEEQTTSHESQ
Experimental: as §1, §2
as §3, with “respectively). […]” for “respectively).”

T1 sequence (P31751 whole entry, species assumed): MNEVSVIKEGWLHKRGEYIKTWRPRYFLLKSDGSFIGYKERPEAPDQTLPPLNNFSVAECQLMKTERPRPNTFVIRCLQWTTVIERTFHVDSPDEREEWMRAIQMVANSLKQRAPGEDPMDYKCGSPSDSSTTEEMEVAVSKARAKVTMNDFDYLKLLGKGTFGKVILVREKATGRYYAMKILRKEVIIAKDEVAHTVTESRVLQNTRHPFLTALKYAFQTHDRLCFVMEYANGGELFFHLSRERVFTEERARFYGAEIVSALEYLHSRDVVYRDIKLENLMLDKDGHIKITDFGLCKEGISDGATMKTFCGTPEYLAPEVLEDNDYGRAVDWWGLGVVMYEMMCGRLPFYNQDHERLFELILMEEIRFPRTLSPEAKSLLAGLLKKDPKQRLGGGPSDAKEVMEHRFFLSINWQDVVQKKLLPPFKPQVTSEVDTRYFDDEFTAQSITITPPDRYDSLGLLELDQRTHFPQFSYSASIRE

Compound | inhibition at 10 µM [1] | inhibition at 10 µM [2] | inhibition at 10 µM [3] | inhibition at 10 µM [4] | inhibition at 10 µM [5] | inhibition at 10 µM [6] | inhibition at 10 µM [7] | inhibition at 10 µM [8] | inhibition at 10 µM [9] | inhibition at 10 µM [10] | inhibition at 10 µM [11] | inhibition at 10 µM [12]
O=c1[nH]c2ncccc2c2cc(Nc3cccc(F)c3)ccc12 [Example 31, 9-(3-Fluoro-phenylamino)-5H-benzo[c][1,8]naphthyridin-6-one] | > 90% | 70 to 90% | 70 to 90% | 70 to 90% | > 90% | 70 to 90% | > 90% | > 90% | 50 to 70% | 50 to 70% | 70 to 90% | 70 to 90%
CC(=O)Nc1ccc(Oc2ccc3c(=O)[nH]c4ncccc4c3c2)cc1 [Example 81, N-[4-(6-Oxo-5,6-dihydro-benzo[c][1,8]naphthyridin-9-yloxy)-phenyl]-acetamide] | > 90% | > 90% | 70 to 90% | > 90% | > 90% | > 90% | > 90% | > 90% | 70 to 90% | 70 to 90% | > 90% | 70 to 90%
NC(=O)c1ccc(Oc2ccc3c(=O)[nH]c4ncccc4c3c2)cc1 [Example 82] | 50 to 70% | 50 to 70% | 50 to 70% | 50 to 70% | 70 to 90% | 70 to 90% | 70 to 90% | 70 to 90% | 50 to 70% | 50 to 70% | > 90% | > 90%
